Values quoted from earlier work, collected in US20230019999A1, “COMBINATION DRUG” (Chugai Seiyaku Kabushiki Kaisha, priority 2019, published 2023).

System: lung cancer cells positive for the CCDC6-RET fusion gene
Details: non-clinical studies, Non Patent Literatures 9 and 10

SMILES: CCc1cc2c(cc1N1CCC(N3CCOCC3)CC1)C(C)(C)c1[nH]c3cc(C#N)ccc3c1C2=O [Alectinib, 9-ethyl-6,6-dimethyl-8-[4-(morpholin-4-yl)-piperidin-1-yl]-11-oxo-6,11-dihydro-5H-benzo[b]carbazole-3-carbonitrile]
- anti-tumor effect: exhibit an anti-tumor effect
